Consider one substance from publication PMC11187126, “Structure and dynamics of the pyroglutamylated RF-amide peptide QRFP receptor GPR103” (Nature Communications, 2024).

This assay addresses T1, GPR103 Y194^ECL2A (Homo sapiens, UniProt Q96P65, Y194A).
T1 construct: we used human full-length QRFPR-encoding plasmids; expressed in transfected cells; host or cells: HEK293 cells, pCAGGS vector
T1 sequence (Q96P65 1-431 Y194A): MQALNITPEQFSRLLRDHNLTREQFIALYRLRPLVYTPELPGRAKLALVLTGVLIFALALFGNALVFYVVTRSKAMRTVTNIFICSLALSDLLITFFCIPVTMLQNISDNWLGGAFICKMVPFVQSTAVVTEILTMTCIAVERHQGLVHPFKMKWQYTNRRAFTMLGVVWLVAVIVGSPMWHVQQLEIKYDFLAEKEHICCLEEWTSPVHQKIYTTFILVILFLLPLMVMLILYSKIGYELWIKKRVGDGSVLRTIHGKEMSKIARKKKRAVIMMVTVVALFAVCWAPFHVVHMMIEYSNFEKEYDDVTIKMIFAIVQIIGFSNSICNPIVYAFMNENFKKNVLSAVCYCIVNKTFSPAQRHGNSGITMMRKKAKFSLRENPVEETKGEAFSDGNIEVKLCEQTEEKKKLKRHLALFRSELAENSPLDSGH
The assay is described as follows: TGFα shedding assay; Exp. level WT (1:10). In kind it is cell-based. How it is done:
For the TGFα shedding assay and the flow cytometry analysis, we used human full-length QRFPR-encoding plasmids. Specifically, GPR103 was N-terminally modified with an HA signal sequence followed by a FLAG epitope and then a flexible linker ([…]; the FLAG epitope is underlined) and inserted into the pCAGGS vector. Plasmid encoding GPR103 mutants were generated using Quickchange Site-Directed Mutagensis kit (Agilent).
The TGFα shedding assay was performed as described previously with minor modifications. Plasmid transfection was performed in a 6-well plate with a mixture of 500 ng (per well in a 6-well plate) AP-TGFα-encoding plasmid and 200 ng GPR103-encoding plasmid. After 1-day culture, the transfected cells were harvested by trypsinization, pelleted by centrifugation at 190 × g for 5 min, and washed once with 5 mM HEPES (pH 7.4)-containing Hank’s Balanced Salt Solution (HBSS). After centrifugation, the cells were resuspended in 8 mL of the HEPES-containing HBSS. The cell suspension was seeded in a 96-well culture plate (cell plate) at a volume of 90 μL (per well hereafter) and incubated in a 37 °C incubator with 5% CO2 for 30 min. […] After spinning the cell plates at 190 × g for 2 min, 80 μL of conditioned media was transferred to an empty 96-well plate (conditioned media (CM) plate). Then, 80 μL of AP reaction solution (10 mM p-nitrophenylphosphate (p-NPP), 120 mM Tris-HCl (pH 9.5), 40 mM NaCl, and 10 mM MgCl2) was dispensed into the cell plates and the CM plates. Absorbance at 405 nm of the plates was measured using a microplate reader (SpectraMax 340 PC384, Molecular Devices) before and after 1-h incubation at room temperature. Ligand-induced AP-TGFα release was calculated by subtracting spontaneous AP-TGFα release signal from ligand-induced AP-TGFα release signal. The AP-TGFα release signals were fitted to a four-parameter sigmoidal concentration–response curve, using the Prism 10 software (GraphPad Prism). For each replicate experiment, the pEC50 parameter (negative logarithmic values of EC50 values) of the individual GPR103 mutants were normalized to that of the wild-type GPR103 performed in parallel, and resulting ∆pEC50 values were used to denote ligand response activity of the mutants. […]
Exp. le vel: WT (1:5 0)Exp. le vel: WT (1:5 0)Exp. le vel: WT (1:5 0)Exp. le vel: WT (1:2 0)Exp. le vel: WT (1:2 0)Exp. le vel: WT (1:1 0) […]
L1 4N - t e r mA F2 5N - t e r mA I 2 6N - t e r mA Y 2 9N - t e r mA C 9 82 .5 7A T10 22 .6 1A Exp . l eve l: WT (1 :5)Exp . l evel : >WT (1 :1)Exp. le vel: WT (1:2 0)Exp. le vel: WT (1:2 0)Exp. le vel: WT (1:5 0)Exp . l eve l: WT (1 :1) […]
Exp. le vel: WT (1:1 0)Exp. le vel: WT (1:2 0) C 1 1 83 .2 5AExp. le vel: WT (1:5 0)Exp. le vel: WT (1:5 0)Exp. le vel: WT (1:2 0)Exp . l eve l: WT (1 :5) […]
Exp. le vel: WT (1:5 0)Exp. le vel: WT (1:1 0)Exp. le vel: WT (1:5 0) E203ECL2AExp . l evel : >WT (1 :1)Exp. le vel: WT (1:5 0)Exp. le vel: WT (1:5 0) […]
Exp . l eve l: WT (1 :1) F28Exp. le vel: WT (1:5 0) C 2 8 56 .4 7AExp. le vel: WT (1:2 0) WExp. le vel: WT (1:2 0) F28Exp. le vel: WT (1:5 0)Exp . l evel : >WT (1 :1) […]
Exp. le vel: WT (1:5 0)Exp. le vel: WT (1:5 0) C 3 2 77 .4 8AExp . l eve l: WT (1 :5)Exp . l evel : >WT (1 :1)Exp . l evel : >WT (1 :1) […]
Suppl eme nt ary Figure 1 | Mutational analysis of GPR103. […]
mutants. Data are presented as mean values ± SEM, normally n=3-5; dots), each performed in triplicate. b-d Cell-surface expression (b) and QRFP26-in-duced activation of GPR103 (c, d) were analyzed by the flow cytometry and the TGFα shedding assay, respectively. From the concentration–response curves (a), Emax (c) and ΔpEC50 (d) values relative to the wild type were calculated. Colors in the mutant bars indicate an expression level matching to that of titrated wild type. Statistical analyses were performed using the ordinary one-way ANOVA followed by Dunnett tests with the expression-matched […]

Where two headings read alike, the source gives them in different places. No end group written: not given here.

For the substance TSGPLGNLAEELNGYSRKKGGFSFRF-NH2 [QRFP26], the Emax amounted to 91.33 % WT (Exp. #1); 94.38 % WT (Exp. #2); 115.19 % WT (Exp. #3); 100% (mean, read-out: Emax); 102 ± 6.1% (n = 3, read-out: Emax). Further, the EC50 (n = 3) is 93.3 nM.

In general, EC50 refers to the concentration needed to bring the measured effect to its halfway point. Higher therefore signals lower potency in that assay.
